# Columns and labels:
# M1 muscarinic receptor = target: T1, M1 muscarinic receptor (Homo sapiens, UniProt P11229); experiment: Functional mobilization of intracellular calcium (FLIPR) in M1-CHO cells; format: cell-based; conditions: Table 4; for Emax: 100% efficacy is the maximum response obtained with the Carbachol control; for M1 Activity: modulating M1 receptor
# T1 construct: expressed in transfected cells; host or cells: CHO (M1-CHO)
# T1 sequence (P11229 1-460): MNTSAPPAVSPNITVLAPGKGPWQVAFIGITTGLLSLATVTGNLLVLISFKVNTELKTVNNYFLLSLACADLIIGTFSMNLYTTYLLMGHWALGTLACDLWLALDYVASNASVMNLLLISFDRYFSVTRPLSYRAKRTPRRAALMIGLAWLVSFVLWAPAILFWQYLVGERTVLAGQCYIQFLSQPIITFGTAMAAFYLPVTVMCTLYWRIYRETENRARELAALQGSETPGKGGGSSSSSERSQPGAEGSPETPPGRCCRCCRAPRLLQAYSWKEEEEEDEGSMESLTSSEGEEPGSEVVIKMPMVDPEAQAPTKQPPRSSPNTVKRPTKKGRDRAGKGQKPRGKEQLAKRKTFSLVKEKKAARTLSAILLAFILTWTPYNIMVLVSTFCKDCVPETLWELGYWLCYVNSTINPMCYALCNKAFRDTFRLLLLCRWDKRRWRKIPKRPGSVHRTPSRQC
# Outline: (§1)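 Intracellular calcium rise is measured by FLIPR fluorescence over 60 sec in CHO cells carrying human M1 or M4 receptors. Compounds are tested alone as agonists, or pre-incubated 15 min (or co-applied) ahead of carbachol at its EC80 to detect inhibition.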
# M4 muscarinic receptor = target: T2, M4 muscarinic receptor (Homo sapiens, UniProt P08173); experiment: Functional mobilization of intracellular calcium (FLIPR) in M4-CHO cells; format: cell-based; conditions: Table 4; for Emax: 100% efficacy is the maximum response obtained with the Carbachol control; for M4 Activity: modulating M4 receptor
# T2 construct: expressed in transfected cells; host or cells: CHO (M4-CHO)
# T2 sequence (P08173 1-479): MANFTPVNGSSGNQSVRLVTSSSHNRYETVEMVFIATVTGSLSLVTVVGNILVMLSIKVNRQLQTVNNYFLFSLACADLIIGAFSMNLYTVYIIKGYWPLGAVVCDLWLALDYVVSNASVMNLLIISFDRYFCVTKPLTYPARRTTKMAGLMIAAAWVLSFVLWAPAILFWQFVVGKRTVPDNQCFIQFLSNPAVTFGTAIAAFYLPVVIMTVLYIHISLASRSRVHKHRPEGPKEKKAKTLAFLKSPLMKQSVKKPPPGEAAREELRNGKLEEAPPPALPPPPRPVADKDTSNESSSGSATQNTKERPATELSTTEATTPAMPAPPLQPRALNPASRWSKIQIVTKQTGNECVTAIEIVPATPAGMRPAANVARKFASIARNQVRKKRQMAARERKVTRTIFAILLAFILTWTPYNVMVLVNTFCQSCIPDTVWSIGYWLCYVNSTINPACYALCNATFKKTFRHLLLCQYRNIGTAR
# Outline: as §1
Compound,Emax (M1 muscarinic receptor) [%],M1 Activity (M1 muscarinic receptor),Emax (M4 muscarinic receptor) [%],M4 Activity (M4 muscarinic receptor)
CCOC(=O)N1CCC(N2CCC3(CC2)CN(C(C)=O)c2c(-c4ccccc4F)cccc23)CC1 [compound 661],25 to 100,x (activity was measured to be greater than 5.0 μM),< 25,x (activity was measured to be greater than 5.0 μM)
C[C@H](O)CC(=O)N1CCC(N2CCC3(CC2)CN(C(=O)N(C)C)c2ccc(F)cc23)CC1 [compound 662],25 to 100,x (activity was measured to be greater than 5.0 μM),25 to 100,xx (activity was measured to be between 2.0 μM and 5.0 μM)
O=C(N[C@H]1CCC2(CCN(C3CCCCCC3)CC2)c2ccccc21)C1CC1 [compound 663],25 to 100,xxx (activity was measured to be less than 2.0 μM),25 to 100,xxx (activity was measured to be less than 2.0 μM)
CCOC(=O)N1C2CCC1CC(N1CCC3(CC[C@H](NC(=O)C4CC4)c4ccccc43)CC1)C2 (stereo partly shown) [compound 664],25 to 100,xxx (activity was measured to be less than 2.0 μM),25 to 100,xxx (activity was measured to be less than 2.0 μM)
CC(C)C(=O)N1CCC(N2CCC3(CC2)CN(C(=O)N(C)C)c2ccc(F)cc23)CC1 [compound 665],25 to 100,x (activity was measured to be greater than 5.0 μM),< 25,x (activity was measured to be greater than 5.0 μM)
CC(=O)N[C@@H]1CCC2(CCN(C3CCCCCC3)CC2)c2ccccc21 [compound 666],< 25,x (activity was measured to be greater than 5.0 μM),25 to 100,xxx (activity was measured to be less than 2.0 μM)
Cc1ccc2c(c1)C1(CCN(C3CC4CCC3C4)CC1)CN2C(=O)NC(C)C (stereo not shown) [compound 667],< 25,x (activity was measured to be greater than 5.0 μM),25 to 100,x (activity was measured to be greater than 5.0 μM)
CS(=O)(=O)N[C@H]1CCC2(CCN([C@H]3CC4CC[C@H](C4)C3)CC2)c2ccccc21 [compound 668],25 to 100,xxx (activity was measured to be less than 2.0 μM),25 to 100,xxx (activity was measured to be less than 2.0 μM)
CCOC(=O)N1C2CCC1CC(N1CCC3(CC[C@@H](NC(C)=O)c4ccccc43)CC1)C2 (stereo partly shown) [compound 669],25 to 100,xxx (activity was measured to be less than 2.0 μM),25 to 100,xxx (activity was measured to be less than 2.0 μM)
CCCN1CC2(CCN(C[C@@H]3C[C@H]4C=C[C@H]3C4)CC2)c2cc(F)ccc21 [compound 670],25 to 100,x (activity was measured to be greater than 5.0 μM),25 to 100,xx (activity was measured to be between 2.0 μM and 5.0 μM)
CC(=O)N[C@H]1CC2(CCN(CC(=O)N3CCCC3)CC2)c2ccccc21 [compound 671],< 25,x (activity was measured to be greater than 5.0 μM),< 25,x (activity was measured to be greater than 5.0 μM)
CC#CCOC(=O)N1CCC(N2CCC3(CC2)CN(C(C)=O)c2ccccc23)CC1 [compound 672],25 to 100,xxx (activity was measured to be less than 2.0 μM),25 to 100,xxx (activity was measured to be less than 2.0 μM)
CN(C)C(=O)NC1CCC2(CCN(CC3CCCCC3)CC2)c2ccccc21 (stereo not shown) [compound 673],< 25,x (activity was measured to be greater than 5.0 μM),25 to 100,xx (activity was measured to be between 2.0 μM and 5.0 μM)

# From patent US7786141B2 (Vertex Pharmaceuticals Incorporated, priority 2004, dated 2010)
